# Reference: patent US11945822B2, “Pyrazolo-triazine and/or pyrazolo-pxrimidine derivatives as selective inhibitor of cyclin dependent kinase” (QURIENT CO., LTD., priority 2018, dated 2024)
# Target: T1, CDK1/Cyclin B (Homo sapiens, UniProt P06493)
# T1 construct: purchased Invitrogen PR4768C
# Experiment: Enzymatic assay for CDK1 (FRET based LANCE Ultra kinase assay)
# Assay type: biochemical
# Settings: read-out: CDK1 enzymatic activity (IC50 activity range)
# Protocol: (§1) Enzymatic Binding Assay Protocol for CDK1, CDK2, CDK5 and CDK7
# (§2) Inhibition activity of the respective compound on CDK kinase under Km value of ATP was tested in FRET based The LANCE® Ultra kinase assay (Perkin Elmer), which uses a ULight™-labeled peptide substrate and an appropriate Europium-labeled anti-phospho-antibody. Test compounds were made with DMSO solutions, and then 4-fold serial dilutions for 8 doses were prepared using automated liquid handler (POD810, LABCYTE) and 80 nL/well of diluted compound solutions were added into the 384-well plates (Greiner, Cat #784075). And then 68 nM of ULight-MBP peptide (Perkin Elmer, Cat #TRF0109-M) and 5 ul/well of ATP (Sigma, Cat #A7699) were added to the plate. After 1 min centrifugation at 1000 rpm, Purified CDKs/Cyclin complex were added following concentrations respectively. 24 uM for CDK1/Cyclin B (Invitrogen, Cat #PR4768C), 22 uM for CDK2/Cyclin A (Invitrogen, Cat #PV6290), 10 uM for CDK5/p25 (Invitrogen, Cat #PR8543B) and […] for CDK7/Cyclin H/MNAT1 (Invitrogen, Cat #PR6749B) were added to the each corresponding plate for CDK1, CDK2, CDK5 and CDK7. Incubate at 23° C. for 60 min and then Eu-labeled anti-phospho-Myelin Basic Protein (PE, Cat #TRF0201-M) and EDTA (Invitrogen, Cat #15575038) mixture in Lance Detection Buffer (Perkin Elmer, Cat #CR97100) was added in each well. After additional incubation at 23° C. for 60 min, test articles were measured the fluorescence using Envision leader (Perkin Elmer, USA) [Laser as excitation light; […] as the first and the second emission filter]. Data was analyzed using XL Fit software.
# T1 sequence (P06493 whole entry): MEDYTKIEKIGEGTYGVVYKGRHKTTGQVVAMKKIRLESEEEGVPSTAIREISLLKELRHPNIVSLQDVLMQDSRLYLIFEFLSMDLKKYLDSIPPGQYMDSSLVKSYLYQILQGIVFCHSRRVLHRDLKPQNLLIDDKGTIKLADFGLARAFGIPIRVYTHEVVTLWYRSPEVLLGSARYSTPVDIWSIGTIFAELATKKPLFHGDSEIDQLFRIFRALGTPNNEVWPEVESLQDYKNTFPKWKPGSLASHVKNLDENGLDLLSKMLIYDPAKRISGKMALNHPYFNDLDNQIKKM
# T1 sequence (P14635 whole entry partner): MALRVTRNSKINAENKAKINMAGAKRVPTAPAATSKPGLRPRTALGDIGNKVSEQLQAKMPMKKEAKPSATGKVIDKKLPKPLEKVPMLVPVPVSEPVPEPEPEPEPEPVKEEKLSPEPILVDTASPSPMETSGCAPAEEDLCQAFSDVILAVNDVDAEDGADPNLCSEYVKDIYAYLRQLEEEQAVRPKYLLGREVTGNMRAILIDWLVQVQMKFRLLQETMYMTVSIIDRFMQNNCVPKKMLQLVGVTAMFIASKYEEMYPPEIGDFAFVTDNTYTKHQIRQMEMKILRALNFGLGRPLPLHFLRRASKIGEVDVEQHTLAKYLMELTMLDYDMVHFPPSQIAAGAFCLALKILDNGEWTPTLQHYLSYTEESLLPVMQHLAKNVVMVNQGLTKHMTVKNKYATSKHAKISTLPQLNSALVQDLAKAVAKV
row,IC50 [nM],Compound
1,> 1000,Cc1cccc(-c2cc(C(C)(C)O)n(C)n2)c1CNc1nc(N2CCC(N)CC2)nc2c(C(C)C)cnn12 [Compound 259]

# Same assay, conditions: read-out: CDK1 enzymatic activity (IC50 range)
row,IC50 [nM],Compound
1,> 1000,CC(C)c1cnn2c(NCc3ccccc3-n3cccn3)nc(C(=O)NC3CCNC3)nc12 (racemic) [Compound 8]
2,100 to 1000,CC(C)c1cnn2c(NCc3cccc4cnn(C)c34)nc(N3CCC(N)CC3)nc12 [Compound 10]
3,> 1000,CCCNC(=O)Nc1ccccc1CNc1nc(N2CCC(N)CC2)nc2c(C(C)C)cnn12 [Compound 11]

# Target: T2, CDK7/Cyclin H/MNAT1 (Homo sapiens, UniProt P50613)
# T2 construct: purchased Invitrogen PR6749B
# T2 sequence (P50613 whole entry): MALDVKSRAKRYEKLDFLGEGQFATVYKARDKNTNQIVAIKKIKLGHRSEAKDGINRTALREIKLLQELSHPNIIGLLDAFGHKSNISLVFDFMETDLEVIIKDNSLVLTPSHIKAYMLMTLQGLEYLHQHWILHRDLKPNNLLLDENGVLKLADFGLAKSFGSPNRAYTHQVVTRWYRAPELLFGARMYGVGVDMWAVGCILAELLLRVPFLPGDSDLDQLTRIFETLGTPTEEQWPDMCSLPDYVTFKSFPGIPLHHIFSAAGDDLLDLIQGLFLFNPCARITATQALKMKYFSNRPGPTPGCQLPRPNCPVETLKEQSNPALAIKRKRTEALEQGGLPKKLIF
# T2 sequence (P51946 whole entry partner): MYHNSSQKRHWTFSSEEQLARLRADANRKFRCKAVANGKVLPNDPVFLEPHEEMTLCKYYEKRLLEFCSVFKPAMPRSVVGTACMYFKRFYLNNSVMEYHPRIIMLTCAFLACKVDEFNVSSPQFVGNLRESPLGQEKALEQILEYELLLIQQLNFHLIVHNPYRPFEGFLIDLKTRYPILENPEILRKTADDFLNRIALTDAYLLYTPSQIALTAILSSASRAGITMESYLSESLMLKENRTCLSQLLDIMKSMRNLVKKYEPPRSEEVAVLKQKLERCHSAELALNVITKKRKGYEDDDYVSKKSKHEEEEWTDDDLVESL
# T2 sequence (P51948 whole entry partner): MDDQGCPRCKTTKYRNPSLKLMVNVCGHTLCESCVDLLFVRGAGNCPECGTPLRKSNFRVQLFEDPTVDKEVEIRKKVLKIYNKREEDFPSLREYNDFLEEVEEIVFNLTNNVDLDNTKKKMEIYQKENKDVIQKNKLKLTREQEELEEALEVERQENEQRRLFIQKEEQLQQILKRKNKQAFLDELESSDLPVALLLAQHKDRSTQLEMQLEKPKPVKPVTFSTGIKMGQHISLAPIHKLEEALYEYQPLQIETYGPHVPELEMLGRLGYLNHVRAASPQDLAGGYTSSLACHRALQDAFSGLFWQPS
# Experiment: Enzymatic assay for CDK7 (FRET based LANCE Ultra kinase assay)
# Assay type: biochemical
# Settings: CDK1/CDK7
# Protocol: as §1
# Inhibition activity of the respective compound on CDK kinase under Km value of ATP was tested in FRET based The LANCE® Ultra kinase assay (Perkin Elmer), which uses a ULight™-labeled peptide substrate and an appropriate Europium-labeled anti-phospho-antibody. […] After 1 min centrifugation at 1000 rpm, Purified CDKs/Cyclin complex were added following concentrations respectively. […] Data was analyzed using XL Fit software.
row,CDK1/CDK7: Selectivity of CDK7 inhibition over CDK1 inhibition,Compound
1,A (A=greater than 200 fold),Cc1cccc(-c2cc(C(C)(C)O)n(C)n2)c1CNc1nc(N2CCC(N)CC2)nc2c(C(C)C)cnn12 [Compound 259]

# Same assay, conditions: CDK2/CDK7
row,CDK2/CDK7: Selectivity of CDK7 inhibition over CDK2 inhibition,Compound
1,A (A=greater than 200 fold),Cc1cccc(-c2cc(C(C)(C)O)n(C)n2)c1CNc1nc(N2CCC(N)CC2)nc2c(C(C)C)cnn12 [Compound 259]

# Same assay, conditions: CDK5/CDK7
row,CDK5/CDK7: Selectivity of CDK7 inhibition over CDK5 inhibition,Compound
1,A (A=greater than 200 fold),Cc1cccc(-c2cc(C(C)(C)O)n(C)n2)c1CNc1nc(N2CCC(N)CC2)nc2c(C(C)C)cnn12 [Compound 259]

# Same assay, conditions: CDK7 over CDK1
row,Compound,CDK1/CDK7: Selectivity of CDK7 inhibition over CDK1 inhibition
1,CC(C)c1cnn2c(NCc3ccccc3-n3cccn3)nc(C(=O)NC3CCNC3)nc12 (racemic) [Compound 8],"B (B=less than 200 fold, but greater than 20 fold)"
2,CC(C)c1cnn2c(NCc3cccc4cnn(C)c34)nc(N3CCC(N)CC3)nc12 [Compound 10],"B (B=less than 200 fold, but greater than 20 fold)"
3,CCCNC(=O)Nc1ccccc1CNc1nc(N2CCC(N)CC2)nc2c(C(C)C)cnn12 [Compound 11],A (A=greater than 200 fold)

# Same assay, conditions: CDK7 over CDK2
row,Compound,CDK2/CDK7: Selectivity of CDK7 inhibition over CDK2 inhibition
1,CC(C)c1cnn2c(NCc3ccccc3-n3cccn3)nc(C(=O)NC3CCNC3)nc12 (racemic) [Compound 8],"B (B=less than 200 fold, but greater than 20 fold)"
2,CC(C)c1cnn2c(NCc3cccc4cnn(C)c34)nc(N3CCC(N)CC3)nc12 [Compound 10],"B (B=less than 200 fold, but greater than 20 fold)"
3,CCCNC(=O)Nc1ccccc1CNc1nc(N2CCC(N)CC2)nc2c(C(C)C)cnn12 [Compound 11],"B (B=less than 200 fold, but greater than 20 fold)"

# Same assay, conditions: CDK7 over CDK5
row,CDK5/CDK7: Selectivity of CDK7 inhibition over CDK5 inhibition,Compound
1,C (C=less than 20 fold),CC(C)c1cnn2c(NCc3ccccc3-n3cccn3)nc(C(=O)NC3CCNC3)nc12 (racemic) [Compound 8]
2,C (C=less than 20 fold),CC(C)c1cnn2c(NCc3cccc4cnn(C)c34)nc(N3CCC(N)CC3)nc12 [Compound 10]

row,Compound,CDK5/CDK7: Selectivity of CDK7 inhibition over CDK5 inhibition
1,CCCNC(=O)Nc1ccccc1CNc1nc(N2CCC(N)CC2)nc2c(C(C)C)cnn12 [Compound 11],"B (B=less than 200 fold, but greater than 20 fold)"

# Same assay, conditions: read-out: CDK7 enzymatic activity (IC50 activity range)
row,IC50 [nM],Compound
1,< 100,Cc1cccc(-c2cc(C(C)(C)O)n(C)n2)c1CNc1nc(N2CCC(N)CC2)nc2c(C(C)C)cnn12 [Compound 259]

# Same assay, conditions: read-out: CDK7 enzymatic activity (IC50 range)
row,IC50 [nM],Compound
1,100 to 1000,CC(C)c1cnn2c(NCc3ccccc3-n3cccn3)nc(C(=O)NC3CCNC3)nc12 (racemic) [Compound 8]
2,< 100,CC(C)c1cnn2c(NCc3cccc4cnn(C)c34)nc(N3CCC(N)CC3)nc12 [Compound 10]
3,< 100,CCCNC(=O)Nc1ccccc1CNc1nc(N2CCC(N)CC2)nc2c(C(C)C)cnn12 [Compound 11]

# Target: T3, CDK5/p25 (Homo sapiens, UniProt Q00535)
# T3 construct: purchased Invitrogen PR8543B
# T3 sequence (Q00535 whole entry): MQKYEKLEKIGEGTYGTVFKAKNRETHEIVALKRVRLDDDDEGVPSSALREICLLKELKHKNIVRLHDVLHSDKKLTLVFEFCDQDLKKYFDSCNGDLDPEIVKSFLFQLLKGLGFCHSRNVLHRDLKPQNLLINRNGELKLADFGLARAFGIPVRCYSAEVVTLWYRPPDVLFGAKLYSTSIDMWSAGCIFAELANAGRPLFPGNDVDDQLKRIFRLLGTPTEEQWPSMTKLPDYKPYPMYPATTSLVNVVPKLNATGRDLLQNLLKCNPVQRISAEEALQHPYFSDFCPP
# T3 sequence (Q15078 99-307 partner limits assumed): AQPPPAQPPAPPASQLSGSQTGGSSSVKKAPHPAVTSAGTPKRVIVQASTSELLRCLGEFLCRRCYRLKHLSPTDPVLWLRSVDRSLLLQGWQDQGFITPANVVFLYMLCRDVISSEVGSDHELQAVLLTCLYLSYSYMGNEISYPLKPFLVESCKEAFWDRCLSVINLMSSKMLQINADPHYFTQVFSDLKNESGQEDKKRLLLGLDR
# Experiment: Enzymatic assay for CDK5 (FRET based LANCE Ultra kinase assay)
# Assay type: biochemical
# Settings: read-out: CDK5 enzymatic activity (IC50 activity range)
# Protocol: as §1, §2
row,IC50 [nM],Compound
1,> 1000,Cc1cccc(-c2cc(C(C)(C)O)n(C)n2)c1CNc1nc(N2CCC(N)CC2)nc2c(C(C)C)cnn12 [Compound 259]

# Same assay, conditions: read-out: CDK5 enzymatic activity (IC50 range)
row,IC50 [nM],Compound
1,> 1000,CC(C)c1cnn2c(NCc3ccccc3-n3cccn3)nc(C(=O)NC3CCNC3)nc12 (racemic) [Compound 8]
2,< 100,CC(C)c1cnn2c(NCc3cccc4cnn(C)c34)nc(N3CCC(N)CC3)nc12 [Compound 10]
3,100 to 1000,CCCNC(=O)Nc1ccccc1CNc1nc(N2CCC(N)CC2)nc2c(C(C)C)cnn12 [Compound 11]

# Target: T4, CDK2/Cyclin A (Homo sapiens, UniProt P24941)
# T4 construct: purchased Invitrogen PV6290
# Experiment: Enzymatic assay for CDK2 (FRET based LANCE Ultra kinase assay)
# Assay type: biochemical
# Settings: read-out: CDK2 enzymatic activity (IC50 activity range)
# Protocol: as §1, §2
row,IC50 [nM],Compound
1,> 1000,Cc1cccc(-c2cc(C(C)(C)O)n(C)n2)c1CNc1nc(N2CCC(N)CC2)nc2c(C(C)C)cnn12 [Compound 259]

# Same assay, conditions: read-out: CDK2 enzymatic activity (IC50 range)
row,IC50 [nM],Compound
1,> 1000,CC(C)c1cnn2c(NCc3ccccc3-n3cccn3)nc(C(=O)NC3CCNC3)nc12 (racemic) [Compound 8]
2,100 to 1000,CC(C)c1cnn2c(NCc3cccc4cnn(C)c34)nc(N3CCC(N)CC3)nc12 [Compound 10]
3,100 to 1000,CCCNC(=O)Nc1ccccc1CNc1nc(N2CCC(N)CC2)nc2c(C(C)C)cnn12 [Compound 11]

# Test system: H460
# Experiment: Cellular H460 viability assay (CellTiter-Glo, 72 hours)
# Assay type: cell-based
# Settings: Homo sapiens, NCI-H460
# Protocol: All cell lines were routinely tested for mycoplasma.
# The effect of the CDK7 inhibitor to inhibit the growth of target cancer cells was evaluated through the 72 hours time period of viability assay. Briefly, the candidate cell line ware plated in 96 well plate at the following density of cells respectively. […] DMSO solvent without compound served as a control and final DMSO concentration less than 0.1%. After 72 hours of incubation at 37° C., 5% CO2 incubator, cells were analyzed for the viability using the CellTiter-Glo Luminescent Cell Viability Assay (Promega, Cat #G7570). All viability assays were performed in duplicate and Luminescence was read using an Envision (Perkin Elmer, USA). Data was analyzed using XLfit software.
row,IC50 [nM],Compound
1,> 10000,CC(C)c1cnn2c(NCc3ccccc3-n3cccn3)nc(C(=O)NC3CCNC3)nc12 (racemic) [Compound 8]
2,< 1000,CC(C)c1cnn2c(NCc3cccc4cnn(C)c34)nc(N3CCC(N)CC3)nc12 [Compound 10]
3,< 1000,CCCNC(=O)Nc1ccccc1CNc1nc(N2CCC(N)CC2)nc2c(C(C)C)cnn12 [Compound 11]
